Values of other authors as cited in patent US20220016034A1, “OPIOID RECEPTOR MODULATOR DOSAGE FORMULATIONS” (Allergan Holdings Unlimited Company, priority 2020, published 2022).

Tested on: stressed and non-stressed mice

SMILES: CN(C)C(=O)C(CCN1CCC(O)(c2ccc(Cl)cc2)CC1)(c1ccccc1)c1ccccc1 [loperamide]
- gastrointestinal transit and fecal output: completely prevented fecal output in a dose-dependent manner
